According to PubChem BioAssay AID743399 (Broad Institute, 2014):
Results filed as inconclusive are left out. The source made the active and inactive calls.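 Rule for the calls: active = compounds lowering the signal whose fitted AC50 is no more than twice their top tested dose; inconclusive = flat curve with activity from -70 to -30%, or bad fit; inactive = the rest.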

Tested on: Huh7 psiCHECK-miR122 Renilla luciferase reporter, 48 h
Assay: enhancers of miR-122 activity, Renilla sensor – cell-based, psiCHECK-miR122, Huh7, dry powder, miR-122 modulator project, dose response (AID 743399)
Details: not given

| Compound | AC50 |
| --- | --- |
| COCC(=O)N(C)C[C@H]1Oc2cc(C#Cc3cccnc3)ccc2S(=O)(=O)N([C@@H](C)CO)C[C@H]1C | 0.354 µM |
| C[C@@H]1CN([C@H](C)CO)S(=O)(=O)c2ccc(C#Cc3ccncc3)cc2O[C@H]1CN(C)C(=O)C1CCOCC1 | 0.496 µM |
| COCC(=O)N(C)C[C@H]1Oc2cc(-c3ccccc3F)ccc2S(=O)(=O)N([C@@H](C)CO)C[C@H]1C | 0.278 µM |
| COCC(=O)N(C)C[C@H]1Oc2cc(C#Cc3cccnc3)ccc2S(=O)(=O)N([C@H](C)CO)C[C@H]1C | < 0.26 µM |
| C[C@@H]1CN([C@H](C)CO)S(=O)(=O)c2ccc(/C=C/c3ccccc3)cc2O[C@@H]1CN(C)C(=O)c1cccnc1 | 7.29 µM |
| C[C@H](CO)N1C[C@H](C)[C@@H](CN(C)C(=O)C2CCOCC2)Oc2cc(C#Cc3ccncc3)ccc2S1(=O)=O | 5.46 µM |
| C[C@H]1CN([C@@H](C)CO)S(=O)(=O)c2ccc(C#Cc3ccncc3)cc2O[C@@H]1CN(C)C(=O)C1CCOCC1 | 9.44 µM |
| COc1cccc(-c2ccc3c(c2)O[C@H](CN(C)C(=O)C2CCOCC2)[C@H](C)CN([C@@H](C)CO)S3(=O)=O)c1 | 4.07 µM |
| CO[C@@H]1CN(C)C(=O)c2cc(NC(=O)c3cccc(Oc4ccccc4)c3)ccc2OC[C@H](C)NC[C@@H]1C | 7.62 µM |
| C[C@@H]1CN([C@@H](C)CO)S(=O)(=O)c2ccc(C#Cc3ccncc3)cc2O[C@@H]1CN(C)C(=O)C1CCOCC1 | 0.838 µM |
| COCC(=O)N(C)C[C@H]1Oc2cc(-c3ccc(C#N)cc3)ccc2S(=O)(=O)N([C@H](C)CO)C[C@H]1C | 0.324 µM |
| Cc1cc(C(C)(C)C)cc(S(=O)(=O)NCCc2ccncc2)c1C | 2.34 µM |
| CN(C)CCN1C(=O)c2cccc3cc(N)cc(c23)C1=O | 10.7 µM |
| CCCC#Cc1ccc2c(c1)O[C@H](CN(C)C(=O)COC)[C@H](C)CN([C@@H](C)CO)S2(=O)=O | 1.1 µM |
| CNC[C@@H]1Oc2cc(C#CC3CCCCC3)ccc2S(=O)(=O)N([C@@H](C)CO)C[C@@H]1C | 14.4 µM |
| OCc1ccc(-c2nn(Cc3ccccc3)c3ccccc23)o1 | 0.449 µM |

| Compound | AC50 |
| --- | --- |
| COCC(=O)N(C)C[C@H]1Oc2cc(-c3ccccc3F)ccc2S(=O)(=O)N([C@H](C)CO)C[C@H]1C | < 0.26 µM |
| C[C@@H]1CN([C@H](C)CO)S(=O)(=O)c2ccc(C#Cc3ccncc3)cc2O[C@@H]1CN(C)C(=O)C1CCOCC1 | 0.896 µM |
| Nc1ccc(Oc2ccc(Br)cc2)cc1 | 1.09 µM |
| O=C(c1ccc(CNc2c(NC3CCCCC3)c(=O)c2=O)cc1)N1CCc2ccccc21 | 1.18 µM |
| Cc1cccc(NC(=O)Nc2ccc3c(c2)C(=O)N(C)[C@@H]2CC[C@H](CC(=O)NCc4ccccc4Cl)O[C@H]2CO3)c1 | 22.2 µM |
| Nc1ccc(Oc2ccc(Cl)cc2)cc1 | 3.4 µM |
| COc1ccc(S(=O)(=O)N(C)C[C@@H]2Oc3ncc(/C=C/c4ccccc4)cc3C(=O)N([C@@H](C)CO)C[C@@H]2C)cc1 | 22.1 µM |
| CN1C(=O)c2cc(NC(=O)c3cccc(F)c3)ccc2OC[C@@H]2O[C@@H](CC(=O)O)CC[C@H]21 | > 60 µM (inactive) |
| COCC(=O)N(C)C[C@H]1Oc2cc(-c3ccc(C#N)cc3)ccc2S(=O)(=O)N([C@@H](C)CO)C[C@H]1C | 0.341 µM |
| C[C@H]1CN([C@@H](C)CO)C(=O)c2cc(C#Cc3ccccc3F)cnc2O[C@H]1CN(C)C(=O)C1CCCCC1 | 20.6 µM |
| O=C(CNCCC1=CCCCC1)Nc1ccccc1N1CCCCCC1 | 16.3 µM |
| CCn1cc(C(=O)O)c(=O)c2cc(F)c(N3CCNCC3)nc21 | > 70 µM (inactive) |
| C[C@H]1CN([C@@H](C)CO)C(=O)c2cc(-c3ccc(C#N)cc3)cnc2O[C@H]1CN(C)C(=O)Nc1ccc(C(F)(F)F)cc1 | 6.96 µM |
| CCCC#Cc1ccc2c(c1)O[C@H](CN(C)C(=O)c1ccncc1)[C@H](C)CN([C@@H](C)CO)S2(=O)=O | 12.8 µM |
| C[C@H]1CN([C@@H](C)CO)S(=O)(=O)c2ccc(C#Cc3ccncc3)cc2O[C@H]1CN(C)C(=O)C1CCOCC1 | 20.7 µM |

Tested on: not listed separately
Assay: as above
Details: Huh7 psiCHECK-miR122 Renilla luciferase reporter, 48 h; at 35 µM (top of the series)

| Compound | activity change, negative = miR122 activation |
| --- | --- |
| CN1C(=O)c2cc(NC(=O)c3cccc(F)c3)ccc2OC[C@H]2O[C@@H](CC(=O)O)CC[C@@H]21 | 20.2% (inactive) |
| Cc1cc(C(C)(C)C)cc(S(=O)(=O)N2CCOCC2)c1C | 92.3% (inactive) |
| CCCCN(CCCC)C(=O)CN(C)S(=O)(=O)c1ccc2c(c1)n(C)c(=O)c(=O)n2C | 46.2% (inactive) |
| CCOC(=O)N1CCC(NC(=O)c2ccc3c(c2)sc2nc(-c4ccccc4)cn23)CC1 | -23.1% (inactive) |
| CO[C@@H]1CN(C)C(=O)c2cc(NC(=O)c3ccc4c(c3)OCO4)ccc2OC[C@H](C)NC[C@@H]1C | -21.7% (inactive) |
| CN1C(=O)c2cc(NC(=O)c3cccc(F)c3)ccc2OC[C@H]2O[C@@H](CC(=O)O)CC[C@H]21 | 52.2% (inactive) |
| O=C(c1ccc(CN2CCOCC2)cc1)N1CCc2ccccc21 | 15.4% (inactive) |
| C/C=C/c1cnc2c(c1)C(=O)N([C@@H](C)CO)C[C@H](C)[C@H](CN(C)S(=O)(=O)c1ccc(OC)cc1)O2 | 26.1% (inactive) |
| O=C(NCc1ccccc1Cl)c1ccc(CNc2c(NC3CCCCC3)c(=O)c2=O)cc1 | -30.8% (inactive) |
| CCOC(=O)N1CCC(NC(=O)c2ccc3nc(N4CCC(C)CC4)sc3c2)CC1 | 53.8% (inactive) |
| CN1C(=O)c2cc(NC(=O)c3cccc(F)c3)ccc2OC[C@H]2O[C@H](CC(=O)O)CC[C@H]21 | -17.4% (inactive) |
| COc1cccc(C(=O)Nc2ccc3c(c2)C(=O)N(C)C[C@@H](OC)[C@@H](C)CN[C@@H](C)CO3)c1 | 4.35% (inactive) |
| C[C@H]1CN([C@@H](C)CO)C(=O)c2cc(-c3ccc(C#N)cc3)cnc2O[C@H]1CN(C)Cc1cncnc1 | -10.9% (inactive) |
| CN1C(=O)c2cc(NC(=O)c3cccc(F)c3)ccc2OC[C@@H]2O[C@H](CC(=O)O)CC[C@@H]21 | -15.2% (inactive) |
| CN1C(=O)c2cc(NC(=O)c3cccc(F)c3)ccc2OC[C@@H]2O[C@H](CC(=O)O)CC[C@H]21 | -41.3% (inactive) |
| O=S(=O)(NCCc1ccncc1)c1ccccc1 | 515% (inactive) |
| CN1C(=O)c2cc(NC(=O)c3cccc(F)c3)ccc2OC[C@H]2O[C@H](CC(=O)O)CC[C@@H]21 | -21.7% (inactive) |
| Cn1c(=O)c(=O)n(C)c2cc(S(=O)(=O)N3CCOCC3)ccc21 | 0% (inactive) |
| COCC(=O)N(C)C[C@@H]1Oc2ncc(-c3ccc(C#N)cc3)cc2C(=O)N([C@@H](C)CO)C[C@@H]1C | -4.35% (inactive) |
| CO[C@@H]1CN(C)C(=O)c2cc(NS(=O)(=O)c3ccc(Oc4ccccc4)cc3)ccc2OC[C@H](C)NC[C@@H]1C | 8.7% (inactive) |
| C[C@H]1CN([C@@H](C)CO)C(=O)c2cc(-c3ccc(C#N)cc3)cnc2O[C@H]1CN(C)C(=O)c1ccccc1 | 10.9% (inactive) |
| CN1C(=O)c2cc(NC(=O)c3cccc(F)c3)ccc2OC[C@@H]2O[C@@H](CC(=O)O)CC[C@@H]21 | -10.9% (inactive) |
| O=C(CN=C1NS(=O)(=O)c2ccccc21)Nc1ccccc1N1CCCCCC1 | -23.1% (inactive) |
| O=C(Nc1ccc(-c2nc3ccccc3o2)cc1)c1cc(-n2cnnc2)ccc1Cl | 0% (inactive) |
